Results on 29 compounds are retold here after patent publication US11111237B2, “Bicyclic compound and use thereof” (SK BIOPHARMACEUTICALS CO., LTD., priority 2019, dated 2021).

Molecules are shown by their SMILES. Where a name gives a salt, the structure may show the parent alone.

Sequence of PRMT5-MEP50 enzyme complex (O14744 2-637): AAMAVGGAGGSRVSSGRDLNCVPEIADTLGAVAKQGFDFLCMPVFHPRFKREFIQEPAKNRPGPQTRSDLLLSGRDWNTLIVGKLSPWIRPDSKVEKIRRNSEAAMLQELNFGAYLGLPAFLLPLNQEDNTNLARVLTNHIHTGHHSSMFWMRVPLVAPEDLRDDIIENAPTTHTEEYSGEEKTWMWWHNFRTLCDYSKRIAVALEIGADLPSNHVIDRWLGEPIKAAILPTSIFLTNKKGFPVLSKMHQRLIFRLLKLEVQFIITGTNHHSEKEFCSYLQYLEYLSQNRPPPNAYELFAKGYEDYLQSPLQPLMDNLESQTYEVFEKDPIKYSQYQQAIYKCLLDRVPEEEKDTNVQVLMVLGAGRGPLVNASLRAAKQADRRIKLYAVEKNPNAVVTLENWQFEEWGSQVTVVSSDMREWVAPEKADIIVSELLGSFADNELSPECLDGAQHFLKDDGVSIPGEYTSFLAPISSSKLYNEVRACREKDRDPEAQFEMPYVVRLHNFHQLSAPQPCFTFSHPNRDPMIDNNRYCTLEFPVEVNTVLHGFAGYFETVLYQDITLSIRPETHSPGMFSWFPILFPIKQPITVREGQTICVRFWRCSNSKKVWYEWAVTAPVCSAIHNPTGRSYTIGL
Sequence of PRMT5-MEP50 enzyme complex (Q9BQA1 2-342 partner): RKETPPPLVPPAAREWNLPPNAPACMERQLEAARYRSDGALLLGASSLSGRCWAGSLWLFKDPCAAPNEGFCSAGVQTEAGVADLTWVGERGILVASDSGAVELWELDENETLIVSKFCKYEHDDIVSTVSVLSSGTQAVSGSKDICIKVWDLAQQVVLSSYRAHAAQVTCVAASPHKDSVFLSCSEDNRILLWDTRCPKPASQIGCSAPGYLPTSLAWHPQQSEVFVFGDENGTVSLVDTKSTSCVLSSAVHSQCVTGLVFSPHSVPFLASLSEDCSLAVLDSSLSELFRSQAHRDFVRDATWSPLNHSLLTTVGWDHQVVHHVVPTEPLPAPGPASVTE

The target in this assay is PRMT5-MEP50 enzyme complex (Homo sapiens (Human), UniProt O14744). Description: PRMT5 enzyme activity in vitro assay (methylation of histone H4R3, ELISA absorbance at 450 nm). It is filed as biochemical. The note with it: SAM, histone H4 peptide, room temperature 2 hours, 8 points from 10 μM to 0.128 nM. The procedure, abridged:
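IC50 was derived from ELISA absorbance at 450 nm, using primary and HRP antibodies against H4R3 methylation on immobilised histone H4 peptide (residues 1-20). Compounds (10 μM to 0.128 nM, 8 points, 1:5) were incubated 2 h at room temperature with the PRMT5-MEP50 complex and SAM, diluted to 5 μg/mL and 2 μM respectively.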
As to `O=C1c2ccc(CN3CCC(O)C3)cc2OCCN1C[C@H](O)CN1CCc2ccccc2C1` (stereo partly drawn) [Example 35, 4-[(2R)-3-(3,4-dihydro-1H-isoquinolin-2-yl)-2-hydroxy-propyl]-8-[(3-hydroxypyrrolidin-1-yl)methyl]-2,3-dihydro-1,4-benzoxazepin-5-one], the IC50 (commonly the midpoint of a concentration-inhibition curve) is 100 to 1000 nM.

The compound `CCN1CCN(C[C@H](O)CN2CCc3ccccc3C2)C(=O)c2ccc(Br)cc21` [Example 157, 8-bromo-4-[(2R)-3-(3,4-dihydro-1H-isoquinolin-2-yl)-2-hydroxy-propyl]-1-ethyl-2,3-dihydro-1,4-benzodiazepin-5-one] gave an IC50 of 1 to 100 nM.

`O=C(c1ccc2c(c1)OCCN(C[C@H](O)CN1CCc3ccccc3C1)C2=O)C1CCCC1` [Example 217, 8-(cyclopentanecarbonyl)-4-[(2R)-3-(3,4-dihydro-1H-isoquinolin-2-yl)-2-hydroxy-propyl]-2,3-dihydro-1,4-benzoxazepin-5-one] displayed an IC50 of 100 to 1000 nM.

For `C[C@@H]1CN(C[C@H](O)CN2CCc3ccccc3C2)C(=O)c2ccc(OC3CC4CCC(C3)N4CCO)cc2O1` (some centres unmarked) [Example 241], the IC50 lay in the range of 100 to 1000 nM.

For the compound `CN1CCC(COc2ccc3c(c2)N(C)CCN(C[C@H](O)CN2CCc4ccccc4C2)C3=O)C1` (stereo partly drawn) [Example 131, 4-[(2R)-3-(3,4-dihydro-1H-isoquinolin-2-yl)-2-hydroxy-propyl]-1-methyl-8-[(1-methylpyrrolidin-3-yl)methoxy]-2,3-dihydro-1,4-benzodiazepin-5-one], the IC50 is 100 to 1000 nM.

`CN1CCN(C[C@H](O)CN2CCc3ccccc3C2)C(=O)c2ccc(OC3CCN(C4COC4)CC3)cc21` [Example 129, 4-[(2R)-3-(3,4-dihydro-1H-isoquinolin-2-yl)-2-hydroxy-propyl]-1-methyl-8-[[1-(oxetan-3-yl)-4-piperidyl]oxy]-2,3-dihydro-1,4-benzodiazepin-5-one] displayed an IC50 of 100 to 1000 nM.

`CC(c1ccc2c(n1)OC(C)(C)CN(C[C@H](O)CN1CCc3ccccc3C1)C2=O)N1CC2(COC2)C1` (stereo partly drawn) [Example 247, 4-[(2R)-3-(3,4-dihydro-1H-isoquinolin-2-yl)-2-hydroxy-propyl]-2,2-dimethyl-8-[1-(2-oxa-6-azaspiro[3.3]heptan-6-yl)ethyl]-3H-pyrido[3,2-f][1,4]oxazepin-5-one] registered an IC50 of 100 to 1000 nM.

As for `C[C@@H]1CN(C[C@H](O)CN2CCc3ccccc3C2)C(=O)c2ccc(OC3CCN(CC(C)(C)O)CC3)cc2O1` [Example 220, (2R)-4-[(2R)-3-(3,4-dihydro-1H-isoquinolin-2-yl)-2-hydroxy-propyl]-8-[[1-(2-hydroxy-2-methyl-propyl)-4-piperidyl]oxy]-2-methyl-2,3-dihydro-1,4-benzoxazepin-5-one], the IC50 is 100 to 1000 nM.

`CN1CCOC(COc2ccc3c(c2)OCCN(C[C@H](O)CN2CCc4ccccc4C2)C3=O)C1` (stereo partly drawn) [Example 104, 4-[(2R)-3-(3,4-dihydro-1H-isoquinolin-2-yl)-2-hydroxy-propyl]-8-[(4-methylmorpholin-2-yl)methoxy]-2,3-dihydro-1,4-benzoxazepin-5-one] had an IC50 of 100 to 1000 nM.

Take `CC(O)CN1CCC(Oc2ccc3c(c2)O[C@H](C)CN(C[C@H](O)CN2CCc4ccccc4C2)C3=O)CC1` (stereo partly drawn) [Example 245, (2R)-4-[(2R)-3-(3,4-dihydro-1H-isoquinolin-2-yl)-2-hydroxy-propyl]-8-[[1-(2-hydroxypropyl)-4-piperidyl]oxy]-2-methyl-2,3-dihydro-1,4-benzoxazepin-5-one]: the IC50 was 100 to 1000 nM.

In the case of `CC(C)N1CC(Oc2ccc3c(c2)OCCN(C[C@H](O)CN2CCc4ccccc4C2)C3=O)C1` [Example 95, 4-[(2R)-3-(3,4-dihydro-1H-isoquinolin-2-yl)-2-hydroxy-propyl]-8-(1-isopropylazetidin-3-yl)oxy-2,3-dihydro-1,4-benzoxazepin-5-one], the IC50 is 100 to 1000 nM.

For the compound `COc1ccc2c(c1)CCCN(CC(O)CN1CCc3ccccc3C1)C2=O` (centres unmarked) [Example 2, 2-[3-(3,4-dihydro-1H-isoquinolin-2-yl)-2-hydroxy-propyl]-7-methoxy-4,5-dihydro-3H-2-benzazepin-1-one], the IC50 was in the range of 100 to 1000 nM.

`CCN1CCC(Oc2ccc3c(c2)N(C)CCN(C[C@H](O)CN2CCc4ccccc4C2)C3=O)C(F)C1` (stereo partly drawn) [Example 136, 4-[(2R)-3-(3,4-dihydro-1H-isoquinolin-2-yl)-2-hydroxy-propyl]-8-[(1-ethyl-3-fluoro-4-piperidyl)oxy]-1-methyl-2,3-dihydro-1,4-benzodiazepin-5-one] gave an IC50 of 100 to 1000 nM.

Compound `CN1CCCC(COc2ccc3c(c2)OCCN(C[C@H](O)CN2CCc4ccccc4C2)C3=O)C1` (stereo partly drawn) [Example 107, 4-[(2R)-3-(3,4-dihydro-1H-isoquinolin-2-yl)-2-hydroxy-propyl]-8-[(1-methyl-3-piperidyl)methoxy]-2,3-dihydro-1,4-benzoxazepin-5-one] returned an IC50 of 1 to 100 nM.

In the case of `O=C(c1ccc2c(c1)OCCN(C[C@H](O)CN1CCc3ccccc3C1)C2=O)N1CCCCC1` [Example 176, 4-[(2R)-3-(3,4-dihydro-1H-isoquinolin-2-yl)-2-hydroxy-propyl]-8-(piperidine-1-carbonyl)-2,3-dihydro-1,4-benzoxazepin-5-one], the IC50 was 100 to 1000 nM.

As to `O=C1c2ccc(CN3CC4CC3CO4)cc2OCCN1C[C@H](O)CN1CCc2ccccc2C1` (stereo partly drawn) [Example 55, 4-[(2R)-3-(3,4-dihydro-1H-isoquinolin-2-yl)-2-hydroxy-propyl]-8-(2-oxa-5-azabicyclo[2.2.1]heptan-5-ylmethyl)-2,3-dihydro-1,4-benzoxazepin-5-one], the IC50 was in the range of 100 to 1000 nM.

Turning to `CC(=O)N1CCC(Oc2ccc3c(c2)OCCN(C[C@H](O)CN2CCc4ccccc4C2)C3=O)CC1` [Example 78, 8-[(1-acetyl-4-piperidyl)oxy]-4-[(2R)-3-(3,4-dihydro-1H-isoquinolin-2-yl)-2-hydroxy-propyl]-2,3-dihydro-1,4-benzoxazepin-5-one], the IC50 is 1 to 100 nM.

For the compound `C[C@@H]1CN(C[C@H](O)CN2CCc3ccccc3C2)C(=O)c2ccc(OC3CCN(C)CC3)cc2O1` [Example 143, (2R)-4-[(2R)-3-(3,4-dihydro-1H-isoquinolin-2-yl)-2-hydroxypropyl]-2-methyl-8-[(1-methyl-4-piperidyl)oxy]-2,3-dihydro-1,4-benzoxazepin-5-one], the IC50 fell in the range of 100 to 1000 nM.

Turning to `CC(C)N1CC=C(c2ccc3c(c2)OCCN(C[C@H](O)CN2CCc4ccccc4C2)C3=O)CC1` [Example 19, 4-[(2R)-3-(3,4-dihydro-1H-isoquinolin-2-yl)-2-hydroxy-propyl]-8-(1-isopropyl-3,6-dihydro-2H-pyridin-4-yl)-2,3-dihydro-1,4-benzoxazepin-5-one], the IC50 lay within 100 to 1000 nM.

The compound `CN1CCC(Oc2ccc3c(c2)N(C)CCN(C[C@H](O)CN2CCc4ccccc4C2)C3=O)CC1` [Example 125, 4-[(2R)-3-(3,4-dihydro-1H-isoquinolin-2-yl)-2-hydroxy-propyl]-1-methyl-8-[(1-methyl-4-piperidyl)oxy]-2,3-dihydro-1,4-benzodiazepin-5-one] returned an IC50 of 100 to 1000 nM.

Regarding `C[C@@H]1CN(C[C@H](O)CN2CCc3ccccc3C2)C(=O)c2ccc(OC3CC4CCC(C3)N4CCF)cc2O1` (some centres unmarked) [Example 242], the IC50 fell in the range of 1 to 100 nM.

`O=C1c2ccc(OC3CC4CCC(C3)N4CCF)cc2OCCN1C[C@H](O)CN1CCc2ccccc2C1` (some centres unmarked) [Example 215] displayed an IC50 of 100 to 1000 nM.

In the case of `CC(C)N1CCC(Oc2ccc3c(c2)OCCN(C[C@H](O)CN2CCc4ccccc4C2)C3=O)CC1` [Example 89, 4-[(2R)-3-(3,4-dihydro-1H-isoquinolin-2-yl)-2-hydroxy-propyl]-8-[(1-isopropyl-4-piperidyl)oxy]-2,3-dihydro-1,4-benzoxazepin-5-one], the IC50 is 1 to 100 nM.

`CC(=O)N1CCC(c2ccc3c(c2)OCCN(C[C@H](O)CN2CCc4ccccc4C2)C3=O)CC1` [Example 17, 8-(1-acetyl-4-piperidyl)-4-[(2R)-3-(3,4-dihydro-1H-isoquinolin-2-yl)-2-hydroxy-propyl]-2,3-dihydro-1,4-benzoxazepin-5-one] returned an IC50 of 1 to 100 nM.

In the case of `CCN1CCOC(COc2ccc3c(c2)OCCN(C[C@H](O)CN2CCc4ccccc4C2)C3=O)C1` (stereo partly drawn) [Example 105, 4-[(2R)-3-(3,4-dihydro-1H-isoquinolin-2-yl)-2-hydroxy-propyl]-8-[(4-ethylmorpholin-2-yl)methoxy]-2,3-dihydro-1,4-benzoxazepin-5-one], the IC50 lay in the range of 100 to 1000 nM.

`CC1(O)CCN(Cc2ccc3c(c2)OCCN(C[C@H](O)CN2CCc4ccccc4C2)C3=O)C1` (stereo partly drawn) [Example 40, 4-[(2R)-3-(3,4-dihydro-1H-isoquinolin-2-yl)-2-hydroxy-propyl]-8-[(3-hydroxy-3-methyl-pyrrolidin-1-yl)methyl]-2,3-dihydro-1,4-benzoxazepin-5-one] yielded an IC50 of 1 to 100 nM.

The compound `CC(=O)N1CC[C@H](Oc2ccc3c(c2)OCCN(C[C@H](O)CN2CCc4ccccc4C2)C3=O)C1` [Example 82, 8-[(3S)-1-acetylpyrrolidin-3-yl]oxy-4-[(2R)-3-(3,4-dihydro-1H-isoquinolin-2-yl)-2-hydroxy-propyl]-2,3-dihydro-1,4-benzoxazepin-5-one] returned an IC50 of 100 to 1000 nM.

As for `C[C@@H]1CN(C[C@H](O)CN2CCc3ccccc3C2)C(=O)c2ccc(OC3CCN(CCO)C[C@H]3F)cc2O1` (stereo partly drawn) [Example 255, (2R)-4-[(2R)-3-[(2R)-3-(3,4-dihydro-1H-isoquinolin-2-yl)-2-hydroxy-propyl]-8-[[(3R,4R)-3-fluoro-1-(2-hydroxyethyl)-4-piperidyl]oxy]-2-methyl-2,3-dihydro-1,4-benzoxazepin-5-one dihydrochloride], the IC50 was 100 to 1000 nM.

`CN1CCN(C(=O)c2ccc3c(c2)OCCN(C[C@H](O)CN2CCc4ccccc4C2)C3=O)CC1` [Example 178, 4-[(2R)-3-(3,4-dihydro-1H-isoquinolin-2-yl)-2-hydroxy-propyl]-8-(4-methylpiperazine-1-carbonyl)-2,3-dihydro-1,4-benzoxazepin-5-one] yielded a 50% inhibitory concentration (IC50) of 100 to 1000 nM.
